{
  "source": "patent US4801712A",
  "about": "“2-Alkyl(or phenyl)thio-6-n-alkylergolines are dopamine D-1 antagonists without D-2 agonist activity” (Eli Lilly and Company, priority 1987, dated 1989)",
  "key": {"[1]": {"biological_target": "T1, dopamine D-1 receptors (Rattus norvegicus, UniProt P18901)", "T1 construct": "Retinal tissue was removed from the eyeball and homogenized; from tissue; host or cells: rat retina homogenate (adult male Sprague-Dawley)", "T1 sequence (P18901 whole entry)": "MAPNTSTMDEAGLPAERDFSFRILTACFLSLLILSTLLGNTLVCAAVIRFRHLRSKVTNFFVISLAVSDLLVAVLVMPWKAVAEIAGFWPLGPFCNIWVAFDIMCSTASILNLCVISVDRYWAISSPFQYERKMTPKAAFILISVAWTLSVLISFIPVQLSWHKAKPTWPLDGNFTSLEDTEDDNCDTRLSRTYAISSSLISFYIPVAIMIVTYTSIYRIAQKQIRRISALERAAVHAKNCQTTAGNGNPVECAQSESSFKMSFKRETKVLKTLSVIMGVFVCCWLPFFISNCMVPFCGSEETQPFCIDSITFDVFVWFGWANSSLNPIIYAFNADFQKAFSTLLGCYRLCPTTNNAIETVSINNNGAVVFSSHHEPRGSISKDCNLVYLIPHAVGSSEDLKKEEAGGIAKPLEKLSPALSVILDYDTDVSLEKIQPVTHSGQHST", "experiment": "Retinal Adenylate Cyclase Assay (dopamine D-1 antagonist assay)", "format": "biochemical, rat (adult male, Sprague-Dawley)", "settings": "10 μM dopamine, rat retina homogenate; for inhibition at 0.1 µM: 0.1 μM drug; for inhibition at 1 µM: 1.0 μM drug; for inhibition at 3 µM: 3.0 μM drug; for inhibition at 10 µM: 10.0 μM drug; for inhibition at 100 µM: 100.0 μM drug", "protocol": "The compounds of this invention are dopamine D-1 antagonists without D-2 agonist activity; i.e., they counter the effects of dopamine at D-1 receptors in the brain. The dopamine D-1 antagonist assay was carried out as follows.\nRetinal Adenylate Cyclase Assay\nAdult male, Sprague-Dawley rats purchased from Charles River Breeding Laboratories (North Wilmington, Mass.) were used in these studies. The rats were decapitated and the eyeballs were removed. The eyeballs were bisected at the juncture of the sclera and iris using capsulotomy scissors. The retina was dissociated from the choroid by irrigation with saline. Retinal tissue was removed from the eyeball and homogenized with Tris-2 mM EGTA (pH 7.4; 1:150 wt.:vol.) using a teflon-glass Dounce homogenizer at a speed of 50 rpm.\nThe adenylate cyclase assay was performed at an incubation temperature of 30° C. and over a 20-minute reaction period. The reaction mixture contained the following constant ingredients: 2 mM MgSO4, 0.5 mM EGTA, 1 mM IBMX, 0.01 mM GTP, 80 mM Tris-HCl, pH 7.4, 0.5 mM ATP with 3-5×10^6 cpm ^32 P-ATP and 20-25 μg retinal homogenate protein. The reaction mixture also contained various concentrations of the compound tested alone or in the presence of 10 μM dopamine. The reaction was started by the addition of ATP/^32 P-ATP and was stopped by the addition of a solution containing 1% SDS, 20 mM ATP, 0.7 mM cyclic AMP, 80 mM Tris-HCl pH 7.4 and 10^4 cpm ^3 H-cyclic AMP in a total volume of 200 μl. This mixture was heated for 2 minutes at 90° C. to further insure reaction termination. The ^32 P cyclic AMP formed during the reaction was isolated from each sample using the chromatographic method of Solomon (1979). The ^3 H-cyclic AMP was also simultaneously isolated with this procedure. The net ^32 P-cyclic AMP formed was calculated by correcting the final ^32 P cpm for column recovery efficiency delermined by the ^3 H recovery and for background radioactivity determined by the radioactivity in incubates without homogenate. Homogenate protein determinations were made using the BioRad protein assay with bovine serum albumin used at the reference protein. Dopaminergic agonist activity was evaluated based upon percent stimulation over activity without drug. Dopaminergic antagonist activity was estimated based upon the percent inhibition of the response to 10 μM dopamine.\nIn the Table, column 1 gives the name of the compound, column 2, the concentration of drug in the medium, and column 3, the percent inhibition of 10 μM dopamine."}, "[2]": {"system": "prolactin secretion (D-2)", "experiment": "Inhibition of prolactin secretion in nonreserpinized rats (test for D-2 dopamine agonist activity)", "format": "in vivo, rat (adult male, Sprague-Dawley)", "settings": "1 hour after treatment, rat serum", "protocol": "The drugs of this invention, represented by formulas II and III, are shown to lack D-2 dopamine agonist activity at D-1 antagonist dose levels in a test to determine their ability (or inability) to inhibit the secretion of prolactin in nonrespernized rats. This test was carried out as follows.\nAdult male rats of the Sprague-Dawley strain weighing about 200 g. were housed in an air-conditioned room with controlled lighting (14 hours light-10 hours dark) and fed lab chow and water ad libitum. The compound was dissolved in 10 percent ethanol, and injected intraperitoneally at a dose of 1 or 2 mg/kg. The compound was administered to a group of 10 rats, and a control group of 10 intact males received an equivalent amount of 10 percent ethanol. One hour after treatment, all rats were killed by decapitation, and 150 μl aliquots of serum were assayed for prolactin.\nThe difference between the mean prolactin level of the treated rats and mean prolactin level of the control rats, divided by the mean prolactin level of the control rats, gives the percent change in prolactin secretion attributable to the given dose."}, "[3]": {"system": "prolactin", "settings": "found by Clemens, Semonsky, Meites and co-workers; cited from earlier work"}},
  "note": "Counter-ions that a name gives are not always drawn.",
  "data": [
    {"smiles": "CSc1[nH]c2cccc3c2c1CC(N(C)C)C3", "note": "(racemic) [(±)-2-methylthio-4-dimethyamino-1,3,4,5-tetrahydrobenz[c,d]indole maleate]", "values": [
      {"measurement": "inhibition at 0.1 µM", "setting": "[1]", "value": -5.3, "unit": "%"},
      {"measurement": "inhibition at 0.3 µM", "setting": "[1]; 0.3 μM drug", "value": "-2.2 ± 3.8", "unit": "%"},
      {"measurement": "inhibition at 1 µM", "setting": "[1]", "value": "0.9 ± 1.5", "unit": "%"},
      {"measurement": "inhibition at 3 µM", "setting": "[1]", "value": "19.1 ± 6.4", "unit": "%"},
      {"measurement": "inhibition at 10 µM", "setting": "[1]", "value": "34.7 ± 13", "unit": "%"},
      {"measurement": "inhibition at 100 µM", "setting": "[1]", "value": "84 ± 3.3", "unit": "%"},
      {"measurement": "inhibition at 1 mg/kg", "setting": "[2]; ip, 1 mg/kg i.p., not marked as statistically significant, read-out: Percent changes in prolactin (inhibition)", "value": 9, "unit": "%"}
    ]},
    {"smiles": "CC(C)C[C@H]1C(=O)N2CCC[C@H]2[C@]2(O)O[C@](NC(=O)[C@@H]3C=C4c5cccc6[nH]c(Br)c(c56)C[C@H]4N(C)C3)(C(C)C)C(=O)N12", "note": "[2-bromo α-ergokryptine]", "values": [
      {"measurement": "activity as prolactin inhibitors", "setting": "[3]", "value": "activity as prolactin inhibitors"}
    ]},
    {"smiles": "CSc1[nH]c2cccc3c2c1C[C@@H]1[C@@H]3CC(CC#N)CN1C", "note": "(stereo partly drawn) [D-2-methylthio-6-methyl-8-cyanomethylergoline]", "values": [
      {"measurement": "inhibition at 2 mg/kg", "setting": "[2]; ip, 2 mg/kg i.p., * statistically significant at p < 0.05, read-out: Percent changes in prolactin (inhibition)", "value": 68, "unit": "%"}
    ]},
    {"smiles": "CSC[C@@H]1C[C@@H]2c3cccc4[nH]c(SC)c(c34)C[C@H]2N(C)C1", "note": "[D-2-methylthio-6-methyl-8β-methylthiomethylergoline]", "values": [
      {"measurement": "inhibition at 0.1 µM", "setting": "[1]", "value": -5, "unit": "%"},
      {"measurement": "inhibition at 1 µM", "setting": "[1]", "value": "26.4 ± 6", "unit": "%"},
      {"measurement": "inhibition at 3 µM", "setting": "[1]", "value": "49 ± 0.8", "unit": "%"},
      {"measurement": "inhibition at 10 µM", "setting": "[1]", "value": "72.5 ± 4.8", "unit": "%"},
      {"measurement": "inhibition at 30 µM", "setting": "[1]; 30.0 μM drug", "value": "73.8 ± 4.2", "unit": "%"},
      {"measurement": "inhibition at 100 µM", "setting": "[1]", "value": "76.6 ± 7.7", "unit": "%"},
      {"measurement": "Percent changes in prolactin (stimulation)", "setting": "[2]; 2 mg/kg i.p., * statistically significant at p < 0.05", "value": 54, "unit": "%"}
    ]},
    {"smiles": "CN1CC(CC#N)C[C@@H]2c3cccc4[nH]cc(c34)C[C@H]21", "note": "(stereo partly drawn) [D-6-methyl-8-cyanomethylergoline]", "values": [
      {"measurement": "activity as prolactin inhibitors", "setting": "[3]", "value": "activity as prolactin inhibitors"}
    ]},
    {"smiles": "CC(C)[C@H]1C(=O)N2CCC[C@H]2[C@]2(O)O[C@](NC(=O)[C@@H]3C=C4c5cccc6[nH]cc(c56)C[C@H]4N(C)C3)(C(C)C)C(=O)N12", "note": "[Ergocornine]", "values": [
      {"measurement": "activity as prolactin inhibitors", "setting": "[3]", "value": "activity as prolactin inhibitors"}
    ]},
    {"smiles": "CC(C)[C@H]1C(=O)N2CCC[C@H]2[C@]2(O)O[C@](NC(=O)[C@@H]3C[C@@H]4c5cccc6[nH]cc(c56)C[C@H]4N(C)C3)(C(C)C)C(=O)N12", "note": "[dihydroergocornine]", "values": [
      {"measurement": "activity as prolactin inhibitors", "setting": "[3]", "value": "activity as prolactin inhibitors"}
    ]}
  ]
}
